Experimental data reported in patent US6503935B1, “Imidazoles and related compounds as α1A agonists” (Abbott Laboratories, priority 1998, dated 2003).
Where a name gives a salt, the structure may show the parent alone. Read-outs that look alike come from different tables or passages of the source.

Legend:
[1] = target: T1, α1d (rat receptor expressed in mouse fibroblasts) (Rattus norvegicus, UniProt P23944); assay: Radioligand binding with [3H]-prazosin, α1d; settings: rat receptor expressed in mouse fibroblasts, [3H]-prazosin
T1 construct: expressed in transfected cells; host or cells: mouse fibroblasts
T1 sequence (P23944 1-561): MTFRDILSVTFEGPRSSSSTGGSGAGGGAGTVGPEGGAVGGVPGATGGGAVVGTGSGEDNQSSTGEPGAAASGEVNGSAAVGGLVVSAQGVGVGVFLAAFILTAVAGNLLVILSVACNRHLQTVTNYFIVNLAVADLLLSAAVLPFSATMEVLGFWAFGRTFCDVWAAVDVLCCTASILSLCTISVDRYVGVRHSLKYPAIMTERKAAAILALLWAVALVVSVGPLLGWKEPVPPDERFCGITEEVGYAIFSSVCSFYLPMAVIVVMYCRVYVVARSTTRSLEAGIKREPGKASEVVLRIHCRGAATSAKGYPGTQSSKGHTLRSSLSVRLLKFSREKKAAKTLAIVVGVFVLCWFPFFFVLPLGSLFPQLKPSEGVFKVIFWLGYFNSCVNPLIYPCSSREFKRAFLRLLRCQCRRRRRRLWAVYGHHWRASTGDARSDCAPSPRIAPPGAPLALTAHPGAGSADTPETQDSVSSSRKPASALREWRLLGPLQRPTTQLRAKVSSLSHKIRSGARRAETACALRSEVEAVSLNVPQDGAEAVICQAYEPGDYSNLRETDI
Summary of the method: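 Radioligand binding with [3H]-prazosin: α1A from rat submaxillary gland; α1b hamster receptor and α1d rat receptor, each expressed in mouse fibroblasts.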

[2] = test system: Anesthetized Dogs; assay: Intraurethral pressure (IUP) in anesthetized dogs; type: in vivo, dog; settings: for Mean Selectivity Ratio MAP ED20/IUP ED5 / Mean IUP ED5 / ED (5 mmHg IUP increase): anesthetized female dogs; for Mean Selectivity Ratio MAP ED20/IUP ED5 / ED (5 mmHg IUP increase): iv; for Mean IUP ED5 / ED (5 mmHg IUP increase): iv dose causing a maximum increase in IUP of 5 mm Hg; for Mean IUP ED5: maleate; for ED (5 mmHg IUP increase): Canis lupus familiaris, read-out: Mean IUP ED5
Source text: In vivo Functional Assays-Assessment of Intrurethral Pressure (IUP) and Mean Arterial Pressure (MAP) in Anesthetized Dogs
Female dogs (Marshall Farms, North Rose, N.Y.) greater that 2 years of age and weighing between 12 and 15 kg were used in these studies. At least 2 weeks prior to any agonist dosing, dogs were instrumented for the chronic measurement of arterial blood pressure by implanting a telemetry transducer/transmitter (TA11PA-C40, Data Sciences International, St. Paul, Minn.) into a carotid artery.
On the test day, dogs fasted since the previous afternoon were pre-anesthetized with thiopental sodium 15 mg/kg i.v. (Pentothal™, Abbott) and intubated. Anesthesia was maintained by allowing the dog to spontaneously breathe a mixture of isoflurane (2.5 to 3 volume %) and oxygen delivered by a Narkomed Standard anesthesia system (North American Drager, Telford, Pa.). An Abbocath-T™ i.v. catheter (18-G, Abbott) was inserted into the cephalic vein for the administration of agonists. A telemetry receiver (RA1310, DataSciences) was placed under the head of each dog and was interfaced to a computerized data acquisition system (Modular Instruments Inc.(MI2), Malvern, Pa.) which allowed for the continuous calibrated recording of arterial blood pressure which was electronically filtered to determine its mean value (MAP).
Dogs with chronic telemetry implants anesthetized as described above were placed in dorsal recumbency and a balloon catheter was inserted into the urethral orifice and advanced approximately 15 cm until the tip was well inside the bladder. The balloon was then inflated with 1 ml of room air and the catheter slowly withdrawn until resistance (corresponding to the bladder neck) was evident. The balloon was then deflated and the catheter withdrawn an additional 2 cm. The balloon was then reinflated and its catheter port connected to a Gould Statham P23Dd pressure transducer interfaced to a computerized data acquisition system (Modular Instruments, Inc., Malvern, Pa.) for the measurement of intraurethral pressure. Increasing iv doses of test agonists were administered and the maximum effect of each dose on IUP was recorded. The effect of each dose was allowed to return to baseline before the next dose was given.
From the resulting dose response curve, an ED5 value, for the dose causing a maximum increase in IUP of 5 mm Hg, could be estimated. An ED20 value for the dose causing a maximum increase in MAP of 20 mm Hg could also be estimated. A selectivity ratio of MAP ED20 vs. IUP ED5 was calculated.

[3] = target: T2, α1A (rabbit urethra) (Oryctolagus cuniculus, UniProt O02824); assay: Agonist contraction of smooth muscle tissue, rabbit urethra; type: cell-based; settings: rabbit urethra; read-out: Agonist Tissue Response (pD2) α1A (rab ureth) (converted)
T2 construct: tested for α1A functional activity using rabbit urethra; from tissue; host or cells: rabbit urethra
T2 sequence (O02824 1-466): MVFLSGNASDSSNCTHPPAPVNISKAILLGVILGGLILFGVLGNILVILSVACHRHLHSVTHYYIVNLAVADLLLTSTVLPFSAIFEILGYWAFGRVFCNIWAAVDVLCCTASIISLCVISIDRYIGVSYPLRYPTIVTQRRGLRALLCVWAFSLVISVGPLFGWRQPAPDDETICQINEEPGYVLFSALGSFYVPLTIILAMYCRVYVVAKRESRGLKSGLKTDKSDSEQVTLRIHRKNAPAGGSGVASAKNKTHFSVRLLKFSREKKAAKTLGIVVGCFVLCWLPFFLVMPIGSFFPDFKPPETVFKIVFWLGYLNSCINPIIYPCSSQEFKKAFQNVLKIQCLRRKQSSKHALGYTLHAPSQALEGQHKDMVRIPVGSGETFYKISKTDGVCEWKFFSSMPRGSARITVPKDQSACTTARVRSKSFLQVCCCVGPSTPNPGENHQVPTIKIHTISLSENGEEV
Protocol: Most of the compounds were tested for α1A functional activity using rabbit urethra as follows. Female New Zealand white rabbits (2.0-3.5 Kg) were sedated with CO2 and decapitated. […] Subsequent experimental conditions were as described above for the other tissues. Agonist concentration response curves were cumulative except for the vas deferens assay in which the transient response made such measurements impractical.

[4] = read-out: Radioligand Binding Ki α1d (Rat)
[5] = Radioligand Binding Ki α1d (Rat)

| SMILES | Ki [1, 4] [µM] | Mean Selectivity Ratio MAP ED20/IUP ED5 [2] | Mean IUP ED5 [2] [nmol/kg] | EC50 [3] [µM] | ED (5 mmHg IUP increase) [2] [µmol/kg] | Ki [1, 5] [µM] | selectivity for increasing intraurethral pressure over arterial pressure as compared to N-(3-(1H-imidazol-4-ylmethyl)-2-methylphenyl]methanesulfonamide) ([2]; in vivo, dogs) [times] |
| --- | --- | --- | --- | --- | --- | --- | --- |
| CCS(=O)(=O)Nc1cccc2c1CCCC2c1c[nH]cn1.O=C(O)/C=C\C(=O)O (single isomer, unassigned; (+)) [Example 33, (+)-N-[5-(1H-imidazol-4-yl)-5,6,7,8-tetrahydro-1-naphthalenyl]ethanesulfonamide, maleate] | 1.08 | 3.3 | 10.5 | 0.17 | – | – | – |
| CCS(=O)(=O)Nc1cccc2c1CCCC2c1c[nH]cn1.O=C(O)/C=C\C(=O)O (single isomer, unassigned; (-)) [Example 34, (−)-N-[5-(1H-imidazol-4-yl)-5,6,7,8-tetrahydro-1-naphthalenyl]ethanesulfonamide, maleate] | 0.842 | – | >1000 | 28.2 | – | – | – |
| CCS(=O)(=O)Nc1cccc2c1CCCC2c1c[nH]cn1.O=C(O)/C=C\C(=O)O (stereo not shown) [Example 12, N-[5-(1H-imidazol-4-yl)-5,6,7,8-tetrahydro-1-naphthalenyl]ethanesulfonamide, maleate] | 1.67 | 7.6 | – | 0.631 | 0.0107 | – | – |
| CN(c1cccc2c1CCCC2c1c[nH]cn1)S(C)(=O)=O (stereo not shown) [Example 15, N-[5,6,7,8-tetrahydro-5-(1H-imidazol-4-yl)-1-naphthalenyl]-N-methylmethanesulfonmamide, maleate] | 0.701 | 2.5 | – | 0.692 | – | – | – |
| O=C(Nc1cccc2c1CCCC2c1c[nH]cn1)C(F)(F)F (stereo not shown) [Example 17, 2,2,2-trifluoro-N-[5-(1H-imidazol-4-yl)-5,6,7,8-tetahydro-1-naphthalenyl]acetamide, maleate] | 3.3 | 1.1 | – | 0.525 | – | – | – |
| CS(=O)(=O)Nc1cccc(Cc2c[nH]cn2)c1.O=C(O)/C=C\C(=O)O [Example 21, N-[3-(1H-imidazol-4-ylmethyl)phenyl]methanesulfonamide, maleate] | – | – | – | 1.86 | – | 0.212 | – |
| COc1ccc(NS(C)(=O)=O)c2c1C(c1c[nH]cn1)CCC2 (stereo not shown) [Example 26, N-[5,6,7,8-tetrahydro-(1H-imidazol-4-yl)-4-methoxyy-1-naphthalenyl]methanesulfonamide, maleate] | – | 2.6 | – | 15.5 | – | – | – |
| Cc1c(Cc2c[nH]cn2)cccc1NS(C)(=O)=O.O=C(O)/C=C\C(=O)O [Example 28, N-[3-(1H-imidazol-4-ylmethyl)-2-methylphenyl]methanesulfonamide, maleate] | – | 2.1 | – | 5.62 | – | 0.815 | – |
| CCS(=O)(=O)Nc1cccc(Cc2c[nH]cn2)c1C.O=C(O)/C=C\C(=O)O [Example 29, N-[3-(1H-imidazol-4-ylmethyl)-2-methylphenyl]ethanesulfonamide, maleate] | – | 5.6 | – | – | – | 0.678 | > 3 |
| CC(c1cccc(NS(C)(=O)=O)c1)c1c[nH]cn1.O=C(O)/C=C\C(=O)O (stereo not shown) [Example 31, N-[3-[1-(1H-imidazol-4-yl)ethyl]phenyl]methanesulfonamide, maleate] | – | 3.4 | – | 4.17 | – | 0.685 | – |
| CS(=O)(=O)Nc1ccc(F)c2c1CCCC2c1c[nH]cn1.O=C(O)/C=C\C(=O)O (stereo not shown) [Example 44, N-[4-fluoro-5-(1H-imidazol-4-yl)-5,6,7,8-tetrahydro-1-naphthalenyl]methanesulfonamide, maleate] | 3.05 | 1.0 | – | 4.9 | 0.844 | – | – |
| C=C(c1cccc(NS(=O)(=O)CC)c1)c1c[nH]cn1 [Example 45, N-{3-[1-(1H-imidazol-4-yl)vinyl]phenyly}ethanesulfonamide, maleate] | – | 2.6 | – | 2 | – | 0.971 | – |
